Test results: US20040166058A1, “Ethylenedicysteine (EC)-drug conjugates, compositions and methods for tissue specific disease imaging” (Board of Regents, The University of Texas System, priority 2002, published 2004)

Experiments:
[1] = test system: RBA CRL-1747 mammary tumor; test: Biodistribution in mammary (breast) tumor-bearing rats; format: in vivo; conditions: iv
Description: (§1) Biodistribution was assessed in mammary tumor-bearing rats (RBA CRL-1747, n=3/time interval, iv). Studies were performed 14 to 17 days after implantation when tumors reached approximately 1 cm in diameter. Following administration of the radiotracer, rats were sacrificed at 0.5-4 hrs. The selected tissues were excised, weighed and counted for radioactivity by using a gamma counter (Packard Instruments, Downers Grove, Ill.). The biodistribution of tracer in each sample was calculated as percentage of the injected dose per gram of tissue wet weight (% ID/g).
as §1, with “breast” for “mammary”

[2] = test system: human lung cancer cells (A549 tumor cell line); test: Biodistribution in lung tumor-bearing nude mice; format: in vivo, athymic nude mice; conditions: for Biodistribution Blood / Biodistribution Brain / Biodistribution Heart / Biodistribution Intestine / Biodistribution Kidney / Biodistribution Liver / Biodistribution Lung / Biodistribution Muscle / Biodistribution Spleen / Biodistribution Stomach / Biodistribution Thyroid / Biodistribution Tumor / Tumor/Blood / Tumor/Lung / Tumor/Muscle: intravenously
Description: Female athymic nude mice (NCr-nu/nu, NCI, Bethasda, Md.) were inoculated with human lung cancer cells (A549 tumor cell line, 3×10^6 cells/mouse, intramuscular) by one author in the mid-dorsal region. After the tumor reached 6 mm, separate biodistribution studies using ^99mTc-EC-DG and 18F-FDG were conducted. Each received ^99mTc-EC-DG or 18F-FDG intravenously (n=3/time point). The injection activity was 1-3 μCi/mouse. The injected mass of ^99mTc-EC-DG was 0.2 mg/rodent.

O=C(O)[C@@H]1C[S][99Tc]23(=[O])[S]C[C@@H](C(=O)O)[N]2CC[N]13 [^99mTc-EC, ^99mTc-L,L-ethylenedicysteine, reference compound]
Biodistribution Blood ([1]; 1 Hour): 0.273 ± 0.039 % ID/g | Biodistribution Intestine ([1]; 1 Hour): 0.787 ± 0.106 % ID/g | Biodistribution Kidney ([1]; 1 Hour): 8.991 ± 0.268 % ID/g | Biodistribution Liver ([1]; 1 Hour): 0.367 ± 0.006 % ID/g | Biodistribution Lung ([1]; 1 Hour): 0.187 ± 0.029 % ID/g | Biodistribution Muscle ([1]; 1 Hour): 0.043 ± 0.002 % ID/g | Biodistribution Stomach ([1]; 1 Hour): 0.127 ± 0.106 % ID/g | Biodistribution Thyroid ([1]; 1 Hour): 0.229 ± 0.118 % ID/g | Biodistribution Tumor ([1]; 1 Hour): 0.149 ± 0.020 % ID/g | Biodistribution Urine ([1]; 1 Hour): 11.045 ± 6.158 % ID/g | Tumor/Blood ([1]; 1 Hour): 0.544 ± 0.004 | Tumor/Lung ([1]; 1 Hour): 0.797 ± 0.022 | Tumor/Muscle ([1]; 1 Hour): 3.414 ± 0.325 | Biodistribution Blood ([1]; 2 Hour): 0.211 ± 0.001 % ID/g | Biodistribution Intestine ([1]; 2 Hour): 0.401 ± 0.093 % ID/g | Biodistribution Kidney ([1]; 2 Hour): 9.116 ± 0.053 % ID/g | Biodistribution Liver ([1]; 2 Hour): 0.286 ± 0.073 % ID/g | Biodistribution Lung ([1]; 2 Hour): 0.144 ± 0.002 % ID/g | Biodistribution Muscle ([1]; 2 Hour): 0.028 ± 0.009 % ID/g | Biodistribution Stomach ([1]; 2 Hour): 0.037 ± 0.027 % ID/g | Biodistribution Thyroid ([1]; 2 Hour): 0.106 ± 0.003 % ID/g | Biodistribution Tumor ([1]; 2 Hour): 0.115 ± 0.002 % ID/g | Biodistribution Urine ([1]; 2 Hour): 13.192 ± 4.505 % ID/g | Tumor/Blood ([1]; 2 Hour): 0.546 ± 0.010 | Tumor/Lung ([1]; 2 Hour): 0.797 ± 0.002 | Tumor/Muscle ([1]; 2 Hour): 4.425 ± 1.397 | Biodistribution Blood ([1]; 4 Hour): 0.149 ± 0.008 % ID/g | Biodistribution Intestine ([1]; 4 Hour): 0.103 ± 0.009 % ID/g | Biodistribution Kidney ([1]; 4 Hour): 7.834 ± 1.018 % ID/g | Biodistribution Liver ([1]; 4 Hour): 0.234 ± 0.016 % ID/g | Biodistribution Lung ([1]; 4 Hour): 0.120 ± 0.012 % ID/g | Biodistribution Muscle ([1]; 4 Hour): 0.019 ± 0.001 % ID/g | Biodistribution Stomach ([1]; 4 Hour): 0.043 ± 0.014 % ID/g | Biodistribution Thyroid ([1]; 4 Hour): 0.082 ± 0.005 % ID/g | Biodistribution Tumor ([1]; 4 Hour): 0.096 ± 0.005 % ID/g | Biodistribution Urine ([1]; 4 Hour): 8.693 ± 2.981 % ID/g | Tumor/Blood ([1]; 4 Hour): 0.649 ± 0.005 | Tumor/Lung ([1]; 4 Hour): 0.798 ± 0.007 | Tumor/Muscle ([1]; 4 Hour): 5.093 ± 0.223 | Biodistribution Blood ([1]; 30 Min.): 0.435 ± 0.29 % ID/g | Biodistribution Intestine ([1]; 30 Min.): 0.173 ± 0.029 % ID/g | Biodistribution Kidney ([1]; 30 Min.): 7.914 ± 0.896 % ID/g | Biodistribution Liver ([1]; 30 Min.): 0.508 ± 0.062 % ID/g | Biodistribution Lung ([1]; 30 Min.): 0.272 ± 0.019 % ID/g | Biodistribution Muscle ([1]; 30 Min.): 0.060 ± 0.006 % ID/g | Biodistribution Stomach ([1]; 30 Min.): 0.136 ± 0.060 % ID/g | Biodistribution Thyroid ([1]; 30 Min.): 0.219 ± 0.036 % ID/g | Biodistribution Tumor ([1]; 30 Min.): 0.342 ± 0.163 % ID/g | Biodistribution Urine ([1]; 30 Min.): 9.124 ± 0.808 % ID/g | Tumor/Blood ([1]; 30 Min.): 0.776 ± 0.322 | Tumor/Lung ([1]; 30 Min.): 1.256 ± 0.430 | Tumor/Muscle ([1]; 30 Min.): 5.841 ± 3.253

OC[C@H]1OC(O)[C@H]([18F])[C@@H](O)[C@@H]1O (some centres unmarked) [^18FDG, [^18F]fluorodeoxyglucose, reference compound]
Biodistribution Blood ([2]; 30 min): 0.793 ± 0.067 % of injected dose per gram of tissue weight | Biodistribution Brain ([2]; 30 min): 6.557 ± 0.390 % of injected dose per gram of tissue weight | Biodistribution Heart ([2]; 30 min): 11.94 ± 2.571 % of injected dose per gram of tissue weight | Biodistribution Intestine ([2]; 30 min): 2.322 ± 0.542 % of injected dose per gram of tissue weight | Biodistribution Kidney ([2]; 30 min): 1.137 ± 0.117 % of injected dose per gram of tissue weight | Biodistribution Liver ([2]; 30 min): 1.051 ± 0.057 % of injected dose per gram of tissue weight | Biodistribution Lung ([2]; 30 min): 2.490 ± 0.209 % of injected dose per gram of tissue weight | Biodistribution Muscle ([2]; 30 min): 4.876 ± 0.621 % of injected dose per gram of tissue weight | Biodistribution Spleen ([2]; 30 min): 1.824 ± 0.196 % of injected dose per gram of tissue weight | Biodistribution Stomach ([2]; 30 min): 5.046 ± 0.461 % of injected dose per gram of tissue weight | Biodistribution Thyroid ([2]; 30 min): 4.490 ± 0.526 % of injected dose per gram of tissue weight | Biodistribution Tumor ([2]; 30 min): 2.226 ± 0.150 % of injected dose per gram of tissue weight | Tumor/Blood ([2]; 30 min): 2.821 ± 0.144 | Tumor/Lung ([2]; 30 min): 0.912 ± 0.119 | Tumor/Muscle ([2]; 30 min): 0.463 ± 0.026 | Biodistribution Blood ([2]; 2 h): 0.236 ± 0.009 % of injected dose per gram of tissue weight | Biodistribution Brain ([2]; 2 h): 3.113 ± 0.132 % of injected dose per gram of tissue weight | Biodistribution Heart ([2]; 2 h): 20.33 ± 7.675 % of injected dose per gram of tissue weight | Biodistribution Intestine ([2]; 2 h): 2.764 ± 0.496 % of injected dose per gram of tissue weight | Biodistribution Kidney ([2]; 2 h): 0.553 ± 0.104 % of injected dose per gram of tissue weight | Biodistribution Liver ([2]; 2 h): 0.586 ± 0.040 % of injected dose per gram of tissue weight | Biodistribution Lung ([2]; 2 h): 2.222 ± 0.137 % of injected dose per gram of tissue weight | Biodistribution Muscle ([2]; 2 h): 5.409 ± 0.611 % of injected dose per gram of tissue weight | Biodistribution Spleen ([2]; 2 h): 1.903 ± 0.144 % of injected dose per gram of tissue weight | Biodistribution Stomach ([2]; 2 h): 4.374 ± 0.864 % of injected dose per gram of tissue weight | Biodistribution Thyroid ([2]; 2 h): 4.617 ± 0.400 % of injected dose per gram of tissue weight | Biodistribution Tumor ([2]; 2 h): 1.699 ± 0.172 % of injected dose per gram of tissue weight | Tumor/Blood ([2]; 2 h): 7.261 ± 1.007 | Tumor/Lung ([2]; 2 h): 0.775 ± 0.113 | Tumor/Muscle ([2]; 2 h): 0.319 ± 0.031 | Biodistribution Blood ([2]; 4 h): 0.203 ± 0.062 % of injected dose per gram of tissue weight | Biodistribution Brain ([2]; 4 h): 2.065 ± 0.080 % of injected dose per gram of tissue weight | Biodistribution Heart ([2]; 4 h): 19.35 ± 8.286 % of injected dose per gram of tissue weight | Biodistribution Intestine ([2]; 4 h): 1.562 ± 0.342 % of injected dose per gram of tissue weight | Biodistribution Kidney ([2]; 4 h): 0.568 ± 0.027 % of injected dose per gram of tissue weight | Biodistribution Liver ([2]; 4 h): 0.785 ± 0.039 % of injected dose per gram of tissue weight | Biodistribution Lung ([2]; 4 h): 2.280 ± 0.182 % of injected dose per gram of tissue weight | Biodistribution Muscle ([2]; 4 h): 4.743 ± 0.610 % of injected dose per gram of tissue weight | Biodistribution Spleen ([2]; 4 h): 1.591 ± 0.161 % of injected dose per gram of tissue weight | Biodistribution Stomach ([2]; 4 h): 2.278 ± 0.455 % of injected dose per gram of tissue weight | Biodistribution Thyroid ([2]; 4 h): 4.424 ± 0.442 % of injected dose per gram of tissue weight | Biodistribution Tumor ([2]; 4 h): 1.606 ± 0.182 % of injected dose per gram of tissue weight | Tumor/Blood ([2]; 4 h): 8.932 ± 1.973 | Tumor/Lung ([2]; 4 h): 0.717 ± 0.106 | Tumor/Muscle ([2]; 4 h): 0.346 ± 0.048 | tumor/blood ratios, 18F-FDG versus ^99mTc-EC-DG ([2]; mouse, in vivo): higher tumor/blood ratios
